# Measurements reported in ChEMBL document CHEMBL5696442, “Discovery of type II inhibitors of TGFβ-activated kinase 1 (TAK1) and mitogen-activated protein kinase kinase kinase kinase 2 (MAP4K2)” (J Med Chem, 2015).
# Calls of active or inactive are those of the source. The rule behind the calls is not given here.
# Tests used:
# [1] = target: Ribosomal protein S6 kinase delta-1 (Homo sapiens) (UniProt Q96S38); test: Inhibition of RSKL1 domain1 Protein Kinase Domain labeling site in human Huh-7 cell lysate at 1 uM by KiNativ Profiling analysis relative to control; assay type: subcellular
# Ribosomal protein S6 kinase delta-1 (Homo sapiens), sequence (Q96S38 whole entry, the tested form may be a part): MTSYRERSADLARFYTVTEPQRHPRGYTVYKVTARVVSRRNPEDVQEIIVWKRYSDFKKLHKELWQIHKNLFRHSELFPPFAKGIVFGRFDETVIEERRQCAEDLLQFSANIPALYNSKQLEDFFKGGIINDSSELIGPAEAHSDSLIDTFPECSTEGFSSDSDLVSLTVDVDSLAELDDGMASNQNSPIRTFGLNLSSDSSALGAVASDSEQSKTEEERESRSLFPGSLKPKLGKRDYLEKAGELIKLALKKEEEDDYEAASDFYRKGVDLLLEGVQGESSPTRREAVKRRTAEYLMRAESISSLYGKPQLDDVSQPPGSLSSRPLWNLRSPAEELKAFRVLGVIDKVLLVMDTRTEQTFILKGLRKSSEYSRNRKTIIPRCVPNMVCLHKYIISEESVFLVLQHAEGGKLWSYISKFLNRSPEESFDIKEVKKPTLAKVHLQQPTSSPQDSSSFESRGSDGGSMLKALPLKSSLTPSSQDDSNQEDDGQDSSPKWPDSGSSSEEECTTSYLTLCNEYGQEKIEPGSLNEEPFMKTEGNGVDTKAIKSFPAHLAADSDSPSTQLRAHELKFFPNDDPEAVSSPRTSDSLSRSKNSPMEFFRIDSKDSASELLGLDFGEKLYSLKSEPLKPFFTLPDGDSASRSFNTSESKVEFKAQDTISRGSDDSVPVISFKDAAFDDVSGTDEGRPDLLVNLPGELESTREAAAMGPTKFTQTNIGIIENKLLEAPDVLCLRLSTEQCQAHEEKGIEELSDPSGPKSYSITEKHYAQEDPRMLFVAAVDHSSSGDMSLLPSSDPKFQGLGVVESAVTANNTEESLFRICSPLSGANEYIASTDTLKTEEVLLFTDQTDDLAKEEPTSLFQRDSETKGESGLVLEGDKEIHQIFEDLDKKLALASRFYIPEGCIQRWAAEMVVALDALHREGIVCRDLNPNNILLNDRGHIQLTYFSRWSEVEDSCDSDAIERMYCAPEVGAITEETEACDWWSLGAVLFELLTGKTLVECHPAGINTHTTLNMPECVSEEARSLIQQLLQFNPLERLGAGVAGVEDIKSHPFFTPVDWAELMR
# [2] = target: T1, Serine/threonine-protein kinase STK11 (Homo sapiens) (UniProt Q15831); test: Inhibition of LKB1 Lys2 labeling site in human Huh-7 cells at 1 uM by KiNativ Profiling analysis relative to control; assay type: cell-based
# T1 sequence (whole entry): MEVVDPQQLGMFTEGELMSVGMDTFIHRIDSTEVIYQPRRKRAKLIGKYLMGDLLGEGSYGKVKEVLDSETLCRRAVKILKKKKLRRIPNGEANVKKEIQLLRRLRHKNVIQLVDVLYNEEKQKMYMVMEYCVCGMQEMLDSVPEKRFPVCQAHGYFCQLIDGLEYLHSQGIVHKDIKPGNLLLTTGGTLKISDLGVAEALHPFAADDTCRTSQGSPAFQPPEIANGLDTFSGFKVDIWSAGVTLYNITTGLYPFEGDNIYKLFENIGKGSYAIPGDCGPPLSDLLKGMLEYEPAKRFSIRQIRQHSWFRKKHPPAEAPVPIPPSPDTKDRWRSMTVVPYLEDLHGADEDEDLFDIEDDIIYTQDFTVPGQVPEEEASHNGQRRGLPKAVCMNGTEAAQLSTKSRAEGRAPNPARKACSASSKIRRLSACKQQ
# [3] = target: Activin receptor type-1 (Homo sapiens) (UniProt Q04771); test: Inhibition of ACVR1 (unknown origin) at 1 uM by Ambit Kinomescan binding assay relative to control
# Activin receptor type-1 (Homo sapiens), sequence (Q04771 whole entry): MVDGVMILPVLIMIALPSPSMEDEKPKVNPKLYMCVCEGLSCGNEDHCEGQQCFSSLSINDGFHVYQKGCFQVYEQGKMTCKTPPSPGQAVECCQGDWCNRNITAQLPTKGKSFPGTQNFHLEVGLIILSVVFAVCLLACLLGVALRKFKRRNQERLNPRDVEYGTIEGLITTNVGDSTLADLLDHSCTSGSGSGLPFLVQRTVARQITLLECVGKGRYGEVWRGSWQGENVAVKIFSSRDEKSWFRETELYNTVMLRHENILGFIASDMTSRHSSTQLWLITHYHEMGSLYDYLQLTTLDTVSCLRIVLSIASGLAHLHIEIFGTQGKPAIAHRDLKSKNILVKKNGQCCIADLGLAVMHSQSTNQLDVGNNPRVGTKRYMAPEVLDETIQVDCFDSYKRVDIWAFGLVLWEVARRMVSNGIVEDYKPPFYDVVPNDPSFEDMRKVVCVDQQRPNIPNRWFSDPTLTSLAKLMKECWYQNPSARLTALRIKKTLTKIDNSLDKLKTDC
# [4] = target: Tyrosine-protein kinase SYK (Homo sapiens) (UniProt P43405); test: Inhibition of SYK (unknown origin) at 1 uM by Ambit Kinomescan binding assay relative to control
# [5] = target: Ribosomal protein S6 kinase alpha-4 (Homo sapiens) (UniProt O75676); test: Inhibition of N-terminal RPS6KA4 kinase domain 1 (unknown origin) at 1 uM by Ambit Kinomescan binding assay relative to control
# Ribosomal protein S6 kinase alpha-4 (Homo sapiens), sequence (O75676 whole entry, looked up, the tested form may be a part): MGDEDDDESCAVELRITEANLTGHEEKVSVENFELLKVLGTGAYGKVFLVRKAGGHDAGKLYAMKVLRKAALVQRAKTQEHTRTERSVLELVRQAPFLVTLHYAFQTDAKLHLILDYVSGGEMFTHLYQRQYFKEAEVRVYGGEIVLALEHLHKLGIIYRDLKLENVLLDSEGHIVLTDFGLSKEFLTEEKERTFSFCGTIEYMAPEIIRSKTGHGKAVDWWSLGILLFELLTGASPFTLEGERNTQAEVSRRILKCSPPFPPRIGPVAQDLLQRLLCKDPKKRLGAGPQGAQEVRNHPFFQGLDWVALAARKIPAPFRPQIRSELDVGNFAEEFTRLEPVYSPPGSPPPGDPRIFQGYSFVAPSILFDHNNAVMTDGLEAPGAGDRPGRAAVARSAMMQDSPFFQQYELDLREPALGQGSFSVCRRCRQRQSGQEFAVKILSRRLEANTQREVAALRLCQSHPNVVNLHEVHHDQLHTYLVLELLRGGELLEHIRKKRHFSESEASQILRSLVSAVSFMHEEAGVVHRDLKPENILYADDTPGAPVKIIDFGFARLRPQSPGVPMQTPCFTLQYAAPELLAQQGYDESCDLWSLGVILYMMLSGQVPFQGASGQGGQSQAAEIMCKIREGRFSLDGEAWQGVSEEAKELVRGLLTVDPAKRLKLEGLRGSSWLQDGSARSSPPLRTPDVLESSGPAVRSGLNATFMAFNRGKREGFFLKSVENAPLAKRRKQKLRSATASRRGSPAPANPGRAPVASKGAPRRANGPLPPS
# [6] = target: T2, Serine/threonine-protein kinase Chk1 (Homo sapiens) (UniProt O14757); test: Inhibition of CHEK1 (unknown origin) at 1 uM by Ambit Kinomescan binding assay relative to control
# T2 sequence (whole entry): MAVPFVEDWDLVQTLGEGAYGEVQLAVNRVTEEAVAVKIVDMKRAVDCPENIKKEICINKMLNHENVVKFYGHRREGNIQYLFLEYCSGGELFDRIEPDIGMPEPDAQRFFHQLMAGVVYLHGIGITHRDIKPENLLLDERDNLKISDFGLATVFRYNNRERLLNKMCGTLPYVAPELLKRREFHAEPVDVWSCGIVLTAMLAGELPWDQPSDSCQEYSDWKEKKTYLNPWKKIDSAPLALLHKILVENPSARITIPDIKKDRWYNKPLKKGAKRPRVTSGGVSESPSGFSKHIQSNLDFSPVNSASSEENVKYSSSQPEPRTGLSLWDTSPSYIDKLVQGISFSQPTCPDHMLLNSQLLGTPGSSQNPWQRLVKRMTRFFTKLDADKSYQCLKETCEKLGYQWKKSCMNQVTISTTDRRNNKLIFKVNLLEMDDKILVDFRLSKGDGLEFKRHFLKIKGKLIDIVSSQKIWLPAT
# [7] = target: Mitogen-activated protein kinase 1 (Homo sapiens) (UniProt P28482); test: Inhibition of ERK2 (unknown origin) at 10 uM by Ambit Kinomescan binding assay
# Mitogen-activated protein kinase 1 (Homo sapiens), sequence (P28482 whole entry): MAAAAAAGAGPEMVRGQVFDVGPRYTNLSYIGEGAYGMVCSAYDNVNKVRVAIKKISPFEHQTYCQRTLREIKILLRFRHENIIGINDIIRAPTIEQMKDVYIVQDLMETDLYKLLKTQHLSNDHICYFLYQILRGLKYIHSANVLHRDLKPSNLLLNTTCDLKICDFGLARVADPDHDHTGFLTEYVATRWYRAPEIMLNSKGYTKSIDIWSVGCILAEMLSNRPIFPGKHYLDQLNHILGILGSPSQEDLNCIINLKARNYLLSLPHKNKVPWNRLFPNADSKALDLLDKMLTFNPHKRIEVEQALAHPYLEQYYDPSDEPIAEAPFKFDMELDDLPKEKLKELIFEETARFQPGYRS
# [8] = target: T3, Mitogen-activated protein kinase kinase kinase kinase 2 (Homo sapiens) (UniProt Q12851); test: Inhibition of MAP4K2 (GCK) Lys1 labeling site in human A-375 cells at 0.5 uM by KiNativ Profiling analysis relative to control; assay type: cell-based
# T3 sequence (whole entry): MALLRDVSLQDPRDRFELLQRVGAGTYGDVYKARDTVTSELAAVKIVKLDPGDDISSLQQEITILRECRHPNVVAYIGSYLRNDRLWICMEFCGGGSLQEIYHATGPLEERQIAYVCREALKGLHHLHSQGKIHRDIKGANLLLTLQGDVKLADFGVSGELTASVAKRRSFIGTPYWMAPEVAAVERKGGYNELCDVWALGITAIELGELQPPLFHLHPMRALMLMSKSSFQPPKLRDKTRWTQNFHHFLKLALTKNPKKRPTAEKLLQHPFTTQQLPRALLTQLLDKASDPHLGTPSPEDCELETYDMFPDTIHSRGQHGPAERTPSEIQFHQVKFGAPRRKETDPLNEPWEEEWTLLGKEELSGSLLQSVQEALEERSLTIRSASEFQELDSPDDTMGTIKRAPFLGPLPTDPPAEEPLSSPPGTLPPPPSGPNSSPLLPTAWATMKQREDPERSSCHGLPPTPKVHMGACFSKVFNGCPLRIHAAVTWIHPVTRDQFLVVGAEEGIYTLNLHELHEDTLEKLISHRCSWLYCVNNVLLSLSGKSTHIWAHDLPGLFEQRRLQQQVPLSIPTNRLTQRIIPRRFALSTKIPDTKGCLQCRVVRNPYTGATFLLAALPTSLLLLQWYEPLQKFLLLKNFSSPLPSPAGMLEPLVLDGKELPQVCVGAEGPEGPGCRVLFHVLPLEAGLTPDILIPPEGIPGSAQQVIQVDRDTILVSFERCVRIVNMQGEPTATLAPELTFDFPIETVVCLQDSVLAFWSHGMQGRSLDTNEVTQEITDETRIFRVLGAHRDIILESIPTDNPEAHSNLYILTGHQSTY
# [9] = target: Serine/threonine-protein kinase 3/4 (Homo sapiens) (UniProt Q13043+Q13188); test: Inhibition of MST1/2 K2 labeling site in human Huh-7 cells at 10 uM by KiNativ Profiling analysis relative to control; assay type: cell-based
# Serine/threonine-protein kinase 3/4 (Homo sapiens), sequence (Q13043 whole entry, looked up): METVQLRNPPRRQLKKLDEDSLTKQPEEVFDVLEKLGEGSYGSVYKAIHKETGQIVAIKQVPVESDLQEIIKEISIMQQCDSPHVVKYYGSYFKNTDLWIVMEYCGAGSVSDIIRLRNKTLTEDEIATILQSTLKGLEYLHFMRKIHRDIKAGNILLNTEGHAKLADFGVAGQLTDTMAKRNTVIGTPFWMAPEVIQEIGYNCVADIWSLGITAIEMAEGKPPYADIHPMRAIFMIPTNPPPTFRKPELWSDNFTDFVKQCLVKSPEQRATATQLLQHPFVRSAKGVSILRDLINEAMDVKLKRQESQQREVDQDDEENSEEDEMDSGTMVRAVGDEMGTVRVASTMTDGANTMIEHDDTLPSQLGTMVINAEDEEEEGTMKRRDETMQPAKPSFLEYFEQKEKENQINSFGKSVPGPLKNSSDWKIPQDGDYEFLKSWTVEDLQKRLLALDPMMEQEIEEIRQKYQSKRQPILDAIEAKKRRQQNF
# Serine/threonine-protein kinase 3/4 (Homo sapiens), sequence (Q13188 whole entry, looked up): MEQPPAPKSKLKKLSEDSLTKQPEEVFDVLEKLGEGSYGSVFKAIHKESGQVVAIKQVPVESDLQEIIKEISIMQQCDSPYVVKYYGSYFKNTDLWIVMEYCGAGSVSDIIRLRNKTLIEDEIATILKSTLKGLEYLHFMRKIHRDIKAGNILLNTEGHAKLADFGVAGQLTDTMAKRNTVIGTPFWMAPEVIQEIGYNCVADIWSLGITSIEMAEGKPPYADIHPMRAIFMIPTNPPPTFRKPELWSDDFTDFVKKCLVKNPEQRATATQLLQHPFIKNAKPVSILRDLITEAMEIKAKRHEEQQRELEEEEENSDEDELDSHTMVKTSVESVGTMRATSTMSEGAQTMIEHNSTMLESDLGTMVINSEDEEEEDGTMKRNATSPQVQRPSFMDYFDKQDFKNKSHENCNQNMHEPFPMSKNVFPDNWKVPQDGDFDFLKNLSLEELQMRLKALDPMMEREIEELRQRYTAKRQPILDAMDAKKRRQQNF
# [10] = target: Mitogen-activated protein kinase kinase kinase kinase 4 (Homo sapiens, UniProt O95819); test: Inhibition of ZC1/HGK K2 labeling site in human Huh-7 cells at 1 uM by KiNativ Profiling analysis relative to control; assay type: cell-based
# Mitogen-activated protein kinase kinase kinase kinase 4, sequence (O95819 2-1239 limits assumed): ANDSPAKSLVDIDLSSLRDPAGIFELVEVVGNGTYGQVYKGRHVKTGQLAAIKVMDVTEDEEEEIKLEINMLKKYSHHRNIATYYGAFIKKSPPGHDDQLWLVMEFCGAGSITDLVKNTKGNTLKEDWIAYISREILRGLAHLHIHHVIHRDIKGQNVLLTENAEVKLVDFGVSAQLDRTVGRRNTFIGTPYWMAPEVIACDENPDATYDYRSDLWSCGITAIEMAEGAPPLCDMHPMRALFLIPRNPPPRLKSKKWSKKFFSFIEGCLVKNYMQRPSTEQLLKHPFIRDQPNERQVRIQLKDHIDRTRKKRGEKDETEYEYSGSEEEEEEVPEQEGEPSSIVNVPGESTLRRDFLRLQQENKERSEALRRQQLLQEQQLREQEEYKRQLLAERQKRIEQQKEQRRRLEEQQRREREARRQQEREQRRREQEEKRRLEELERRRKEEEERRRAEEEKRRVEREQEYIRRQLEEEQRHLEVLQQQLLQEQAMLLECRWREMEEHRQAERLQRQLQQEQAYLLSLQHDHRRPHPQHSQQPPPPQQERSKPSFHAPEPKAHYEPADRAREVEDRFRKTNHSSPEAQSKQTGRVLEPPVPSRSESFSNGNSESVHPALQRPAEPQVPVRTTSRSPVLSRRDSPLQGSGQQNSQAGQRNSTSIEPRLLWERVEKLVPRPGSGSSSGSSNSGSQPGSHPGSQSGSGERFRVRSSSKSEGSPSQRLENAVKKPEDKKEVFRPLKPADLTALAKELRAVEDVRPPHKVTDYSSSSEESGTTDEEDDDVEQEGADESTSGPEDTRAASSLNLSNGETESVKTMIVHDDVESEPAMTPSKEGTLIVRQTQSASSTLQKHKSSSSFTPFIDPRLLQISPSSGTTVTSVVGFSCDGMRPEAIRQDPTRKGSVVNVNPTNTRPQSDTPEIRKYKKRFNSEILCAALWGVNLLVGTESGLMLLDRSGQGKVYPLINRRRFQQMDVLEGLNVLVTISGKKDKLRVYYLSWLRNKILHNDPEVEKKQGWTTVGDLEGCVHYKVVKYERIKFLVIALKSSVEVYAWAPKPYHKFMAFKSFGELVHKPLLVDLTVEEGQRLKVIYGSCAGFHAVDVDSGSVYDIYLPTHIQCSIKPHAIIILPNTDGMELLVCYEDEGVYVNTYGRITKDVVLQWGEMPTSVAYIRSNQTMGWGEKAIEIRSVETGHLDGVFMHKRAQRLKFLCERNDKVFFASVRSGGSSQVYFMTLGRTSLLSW
# [11] = target: Leukocyte tyrosine kinase receptor (Homo sapiens) (UniProt P29376); test: Inhibition of LTK (unknown origin) at 10 uM by Ambit Kinomescan binding assay relative to control
# [12] = target: T4, Dual specificity mitogen-activated protein kinase kinase 6 (Homo sapiens) (UniProt P52564); test: Inhibition of MAP2K6 K1 labeling site in human Huh-7 cells at 10 uM by KiNativ Profiling analysis relative to control; assay type: cell-based
# T4 sequence (whole entry): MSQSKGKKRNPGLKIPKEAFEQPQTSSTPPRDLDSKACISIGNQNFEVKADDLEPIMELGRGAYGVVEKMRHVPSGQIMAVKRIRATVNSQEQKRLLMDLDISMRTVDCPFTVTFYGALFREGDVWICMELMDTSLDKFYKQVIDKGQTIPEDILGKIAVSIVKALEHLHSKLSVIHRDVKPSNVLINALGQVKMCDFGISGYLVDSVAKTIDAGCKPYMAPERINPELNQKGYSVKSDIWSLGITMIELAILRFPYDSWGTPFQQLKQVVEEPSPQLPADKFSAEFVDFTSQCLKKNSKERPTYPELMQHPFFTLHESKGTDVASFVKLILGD
structure (smiles),measurement,setting,value
CNc1cc(Oc2cc(C(=O)Nc3cc(N4CCN(C)CC4)cc(C(F)(F)F)c3)ccc2C)ncn1,inhibition,[1],15.7%
same,inhibition,[2],15.1%
CCN1CCN(Cc2ccc(NC(=O)c3ccc(C)c(/C=C/c4cnc5[nH]ccc5c4OC)c3)cc2C(F)(F)F)CC1,inhibition,[3],100%
same,inhibition,[4],18%
same,inhibition,[5],72%
same,inhibition,[6],100%
CCN1CCN(Cc2ccc(NC(=O)c3ccc(C)c(Oc4ccnc5[nH]ccc45)c3)cc2C(F)(F)F)CC1,inhibition,[7],inactive
same,inhibition,[8],> 99.5%
same,inhibition,[9],-9.8%
same,inhibition,[10],23%
same,inhibition,[11],1.2%
same,inhibition,[12],5.5%
